In patent publication US12180084B2, “Cerium (III) carbonate formulations” (THE REGENTS OF THE UNIVERSITY OF CALIFORNIA, priority 2019, dated 2024):

Tests used:
[1] = CR dye photodegradation in TiO2-based sunscreen film (Neutrogena Broad Spectrum Mineral Sunscreen SPF 60+); conditions: 3.0 wt. % added agent relative to sunscreen weight
Method: Films on filter paper were fabricated and photoreactor experiments were conducted exactly the same way as described in Example 7.3, using CR dye, except UV irradiation in the photoreactor was conducted for a period of 4 h. These films contained either no UV-protecting agent, 3.0 wt. % of Ce2(CO3)3·6H2O that was synthesized according to Example 3, 3.0 wt. % of commercial Ce2(CO3)3·xH2O (Acros Organics), or 3.0 wt. % of ZnO (NANOBYK-3840). […] Upon adding 3 wt. % of Ce2(CO3)3·6H2O synthesized according to Example 3 to the sunscreen formulation, a decrease in the amount of CR dye photodegradation to 15±1% is observed. […] When cerium carbonate consisting of Ce2(CO3)3·xH2O from Acros Organics is instead used in place of Ce2(CO3)3·6H2O synthesized according to Example 3, photoprotection with 24±2% CR dye photodegradation is observed. The properties of Ce2(CO3)3·xH2O from Acros Organics have been ascribed in Example 4, and these aspects are borne out in conjunction with sunscreen-based formulations here as well. When instead of cerium carbonate ZnO (NANOBYK-3840) is used as a UV-protecting agent, less effect on CR dye photodegradation is observed. This is a similar outcome to observations with MB dye and ZnO-based sunscreen formulation in Example 7.2.
The amount of Ce2(CO3)3·6H2O synthesized according to Example 3 that was incorporated into the TiO2-based sunscreen was increased to 5.0 wt. %, and results are shown in FIGS. 23A-23B and are summarized in Table 4. […] There is a slight diminishing return for adding Ce2(CO3)3·6H2O both here and in Example 7.2, but the effect of increasing Ce2(CO3)3·6H2O on organic-molecule photoprotection is much more pronounced than in the case of ZnO.

[2] = CR organic dye photodegradation in dried acrylic paint film under sunlight; conditions: 6 h sunlight
Text: To investigate the effectiveness of this approach in a dry (solid) composition, Congo Red (CR) organic dye at a concentration of 3×10^−5 M was incorporated into a waterborne acrylic paint formulation dispersion, together with P25 photocatalyst (10 wt % relative to the Ti-Pure R706 pigment weight used in the dispersion).
A composition was made with 16% Ce (III)-R706 pigment volume concentration comprising CR organic dye (the pigment volume concentration is defined as the volume percentage of solid particles in the system after formation of the composition (e.g., excluding water). This was performed by first preparing a 75 wt % aqueous slurry of Ce (III)-R706 pigment by high shear mixing in presence of 0.3 wt % TAMOL™ 1124 with respect to the weight of pigment. 4.64 g of this slurry was incorporated in 12.78 g of acrylic-based BP 8164 polymer (obtained from the Dow Chemical Company), to which was added 1.966 mL of 3.5×10^−4 M CR aqueous dye solution, and 10 wt % P25 photocatalyst (with respect to pigment weight). The resulting dispersion was mixed under high-shear conditions in a high speed mixer.
Thereafter, 0.6 g of 2020E thickener (a non-ionic urethane rheology modifier) was added into the slurry, and the resulting dispersion was mixed under high-shear conditions in a high-speed mixer, to obtain the final formulation dispersion. The solid (dried) film coating was prepared with a 3 mil (1 mil=0.001 inch) bar applicator on a polyacrylic substrate and dried for 48 h prior to conducting the photocatalysis experiments. During photocatalysis, all the coatings were exposed to sunlight (under similar conditions) for an exposure period of 6 hours. Prior to sunlight exposure, 100 mg of the coating was scraped off with a sharp blade, and was extracted in 1.5 mL of absolute ethanol for UV-visible spectroscopy analysis, to obtain a datum of CR organic dye concentration in the film prior to photocatalysis. Similarly, another 100 mg portion of coating scraped off and extracted after 6 hours of sunlight exposure, and the percentage of dye degradation was calculated by UV-visible spectrophotometry.
To investigate the photopassivation effectiveness of a separate cerium (III) compound in a dry (solid) paint film coating, insoluble cerium (III) carbonate particles and CR organic dye at a concentration of 3×10^−5 M were incorporated into a waterborne acrylic paint formulation dispersion, using either Ti-Pure-R706 or the same rutile TiO2 used in Example 1 as the pigment, and assessed the rate of dye photodegradation relative to an identical dispersion, in the absence of cerium (III) carbonate particles.
The composition of this dispersion, and the procedure for synthesizing the dried coating film is described in the paragraph below. […]

[3] = MB dye photodecomposition under 254 nm light in the absence of any added photocatalyst; conditions: 1 mg in 10 mL 10^−5 M MB, up to 60 min, no photocatalyst
Text: Though photocatalysis increases photodecomposition of organics, thought to be mediated by generation of reactive oxygen species (ROS), organic molecules have their own absorptivity of light due to presence of light-absorbing chemical substituents. This absorptivity of light can itself produce radicals in water, which even in the absence of a photocatalyst per se, can ultimately lead to photodegradation/decomposition of organics. Here it was investigated whether it was possible to reduce the inherent photodecomposition/degradation of methylene blue (MB) dye under exposure to 254 nm light, by using cerium (III) carbonate, in the absence of any added photocatalyst.
Two separate sets of photoreactions were performed: (1) 10 mL aqueous solution of 10^−5 M MB dye was exposed to 254 nm light under a photoreactor setup for a duration of up to 60 min and (2) 1 mg Ce2(CO3)3·4H2O that was synthesized according to the procedure described in Example 3 was dispersed in a 10 mL aqueous solution of 10^−5 M MB dye, and the resulting slurry was exposed to 254 nm light under photoreactor setup for a duration of up to 60 min.

[4] = MB organic dye photodegradation in aqueous slurry with P25 photocatalyst under 254 nm light; conditions: 1 mg Ce2(CO3)3·4H2O versus 11.4 mg Ce (III)-R706, 2 mg P25

% of CR dye photodegradation after 4 h of UV irradiation in photoreactor ([1]; listed as Ce2(CO3)3·xH2O from Acros Organics) [%] | % of CR dye photodegradation after 4 h of UV irradiation in photoreactor ([1]; listed as Commercial Ce2(CO3)3•xH2O (Acros Organics)) [%] | photodegradation of CR organic dye in dried paint film ([2]; Ti-Pure R706 pigment, 2 wt. % cerium (III) carbonate relative to pigment) [%] | photodegradation of CR organic dye in dried paint film ([2]; Ti-Pure R706 pigment, 5 wt. % cerium (III) carbonate relative to pigment) [%] | photodegradation of CR organic dye in dried paint film ([2]; rutile TiO2 pigment, 2 wt % cerium (III) carbonate relative to pigment) [%] | Compound | photodegradation of CR organic dye in dried paint film ([2]; rutile TiO2 pigment, 5 wt % cerium (III) carbonate relative to pigment) | fold decreased rate of MB dye photodecomposition compared to control MB solution [3] [fold] | fold lower rate constant than with the same amount of cerium as Ce (III)-R706 [4] [fold]
24±2 | 24 ± 2 |  |  |  | Ce2(CO3)3·xH2O [Ce2(CO3)3·xH2O (ACROS Organics)] |  |  | 
 |  | 29 | 12 | 20 | O=C([O-])[O-].O=C([O-])[O-].O=C([O-])[O-].[Ce+3].[Ce+3] [Ce2(CO3)3·4H2O] | did not show any detectable CR dye photodegradation | ~40 | 1.5
